Data on 18 compounds can be found in PMC4102417 (PLoS Neglected Tropical Diseases, 2014).

The nature of one data set: in vitro. Conditions: mouse. The format is cell-based, murine.
Another data set concerns 3T3 fibroblast cells. The experiment in a line: cells. The format is cell-based, murine. Conditions: for activity at 10 µM: Mus musculus, NIH3T3, 72 h, Table S2, read-out: Mammalian (3T3) cell % growth at 10 uM; for CC50: 3T3 fibroblasts, 72 hours, separate assays separated by semicolons, read-out: Mammalian cell CC50.
Data set [1] relates to T. cruzi (Tulahuen strain). The experiment in a line: microbe, parasite or virus in culture. The format is cell-based, Trypanosoma cruzi. The settings on record: for activity at 10 µM: Table S2, read-out: T. cruzi % growth @ 10 uM (Amastigotes); for EC50: read-out: T. cruzi EC50. Put shortly:
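Tulahuen parasites expressing beta-galactosidase were added (1×10^4 trypomastigotes/well) to 3T3 fibroblasts plated 24 h earlier, 4 h before compound (10 µM final).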

The subject of data set [2] is T. cruzi (Tulahuen strain). Kind of data set: Mouse model of acute T. cruzi infection. The settings on record: oral gavage days 7-11 post-infection, doses of Table 5. The format is in vivo, BALB/c mice. As for the experimental part: Age 8–10 week-old BALB/c female mice were obtained from Harlan Laboratories. Mice were infected with 1×10^4 tissue culture derived wild-type trypomastigotes of the Tulahuen strain by subcutaneous injection on day 0. They were administered test drugs in groups of five by oral gavage on days 7–11. All drugs were dissolved in vehicle composed of sodium carboxymethylcellulose 0.5% w/v, benzyl alcohol 0.5% v/v, Tween 80 0.4% v/v diluted in 0.9% aqueous NaCl solution. Parasitemia was quantified by examining tail blood specimens at times points indicated in Figures 2, 3, S4, and S5 as previously described.
Selected drugs identified in the above screens were tested alone or in combination in the mouse model of T. cruzi infection. In the first experiment, we focused on posaconazole and benznidazole because of their advanced clinical status for treating Chagas disease. Since benznidazole and posaconazole are known to have curative activity as monotherapies, we used sub-curative doses so that additive or synergistic interactions could be detected when used in combinations. The other drugs were administered at doses described in the literature for treating mice. Briefly, mice were gavaged once or twice daily with a given drug or combination on days 7–11 post-infection. We conducted a second experiment (Figure 3) examining the same drugs with the purpose of confirming and expanding upon the initial results shown in Figure 2.

In another data set the test system is T. cruzi amastigotes. Kind of data set: Combination screen of drug pairs at EC25. The format is cell-based, Trypanosoma cruzi. The settings on record: at EC25, alone or in combination. As for the experimental part:
[…] compounds were selected for testing in combinations. All two-way combinations were tested (300 experiments). First, EC25 concentrations were determined for the individual compounds against T. cruzi amastigotes as described above. To test for synergy, compounds were evaluated in quadruplicate individually at the experimentally determined EC25, and in combination with other compounds at each respective EC25 concentration (further explained in the Discussion section). For inclusion in downstream analysis, each individual compound in a pair was required to inhibit 25±10% of growth in positive control (untreated) wells. If not in this range, the experiment was repeated. The measured growth of T. cruzi amastigotes was compared to the predicted effect of the combination as follows. Assuming a simple additive effect, the predicted inhibition of the drug pairs was expected to be the product of the percent-growths of each compound when tested alone. For example, if compound A gave 75% growth of the control and compound B gave 80% of the control growth, then the combination would be predicted to be 60% (i.e., 75%×80% = 60%).
Cells in green indicate a greater effect than predicted (“synergism”) and the squares in red indicate a lesser effect than predicated (“antagonism”).

The next data set deals with T. brucei. Conditions: cited from earlier work.
Setting [3] is: 3T3 fibroblasts, 72 hours, separate assays separated by semicolons, read-out: Mammalian cell CC50.
Setting [4] is: Trypanosoma cruzi, TULAHUEN, Fibroblast, 120 h.
Setting [5] is: Trypanosoma cruzi, TULAHUEN, Fibroblast, 120 h, intracellular amastigotes, 5 days, separate assays separated by semicolons.
Setting [6] is: average mammalian cell CC50 divided by average T. cruzi EC50.
[7] abbreviates: intracellular amastigotes, 5 days, separate assays separated by semicolons.
[8] abbreviates: Trypanosoma cruzi, TULAHUEN, Fibroblast, Table S2, amastigotes.

Structures are written as SMILES. “Also recorded” adds a separate entry of the source. Like-named read-outs stand apart in the source and are kept apart here. Some results are limits rather than exact numbers.

One may read the CC50 as the concentration at which the toxic effect on the cells reaches its halfway point. What is called EC50 is the concentration that produces a half-maximal response. Take `Cl.OC(c1cc(C(F)(F)F)nc2c(C(F)(F)F)cccc12)C1CCCCN1` (stereo not shown) [Mefloquine, [2,8-bis(trifluoromethyl)quinolin-4-yl](piperidin-2-yl)methanol hydrochloride]: in the data set “in vitro” (setting [3]), the CC50 is 12100 nM. Also, the figures for the activity at 10 µM (in the data set on 3T3 fibroblast cells; in data set [1] (setting [4])) were 94.7% and 2.6%, respectively. Also, the EC50 in data set [1] (setting [5]) came to 6.1 µM. Besides, the Selectivity index in data set [1] (setting [6]) stood at 2.0.
As to `CCOC(=O)C1=C(COCCN)NC(C)=C(C(=O)OC)C1c1ccccc1Cl.O=S(=O)(O)c1ccccc1` (stereo not shown) [Amlodipine, 3-ethyl 5-methyl 2-[(2-aminoethoxy)methyl]-4-(2-chlorophenyl)-6-methyl-1,4-dihydropyridine-3,5-dicarboxylate; benzenesulfonic acid], the CC50 in “in vitro” (Mammalian cell CC50 (nM)) was 13000 nM. Besides, the values for the activity at 10 µM (in the data set with 3T3 fibroblast cells; in data set [1] (setting [4])) were 100% and 13.3%, respectively. Also, in data set [2], the parasitemia result is reported as “no differences compared to the vehicle treated mice; also recorded: slight effects”. Moreover, the Selectivity index in data set [1] was 11.8. In addition, in data set [1] (setting [5]), the 50% effective concentration (EC50) was found to be 1.1 µM.
For `Oc1ncnc2[nH]ncc12` [Allopurinol], the CC50 in “in vitro” (setting [3]) is > 50000 nM. Moreover, in data set [2], the parasitemia entry is given as “slight effects”. The Selectivity index in data set [1] is >17.9. Further, the EC50 in data set [1] (setting [5]) was 2.8 µM.
`CN(C)CC/C=C1/c2ccccc2Sc2ccc(Cl)cc21` [Chlorprothixene, {3-[(9Z)-2-chloro-9H-thioxanthen-9-ylidene]propyl}dimethylamine]: in the data set “in vitro” (setting [3]), the CC50 amounted to 12900 nM. For the same compound, the activity at 10 µM in the data set on 3T3 fibroblast cells was found to be 97.1%; in data set [1] (setting [4]) it was 1.8%. Moreover, the Selectivity index in data set [1] came out at 5.2. The EC50 was found to be 2.35 µM in data set [1] (setting [5]) and 2.6 µM in data set [1] (setting [7]).
`Clc1ccc(C(OCCN2CCCCC2)c2ccccc2)cc1` (stereo not shown) [Cloperastine, 1-{2-[(4-chlorophenyl)(phenyl)methoxy]ethyl}piperidine]: the CC50 in “in vitro” (setting [3]) stood at 21400 nM. For the same compound, the activity at 10 µM with 3T3 fibroblast cells is 100%; in data set [1] (setting [4]), 1.2%. Further, in the data set with T. cruzi amastigotes, the “% of normal growth” value is 79%. Also, the EC50 amounted to 5.8 µM in data set [1] (setting [5]) and 5.6 µM in data set [1] (setting [7]). The compound further gave a Selectivity index in data set [1] (setting [6]) of 3.8.
Turning to `NCCC(O)(P(=O)(O)O)P(=O)(O)O` [Pamidronate], in the data set “in vitro” (setting [3]), the CC50 worked out at 25700 nM. The EC50 in data set [1] (setting [5]) came out at 3 µM. The same compound had a Selectivity index in data set [1] (setting [6]) of 8.6.
Take `Nc1nc(N)c2nc(-c3ccccc3)c(N)nc2n1` [Triamterene, 6-phenylpteridine-2,4,7-triamine]: in the data set with T. brucei (no reference given), the “activity against T. brucei” value is 48 µM. For the same compound, the 50% cytotoxic concentration (CC50) in “in vitro” (setting [3]) was 23000 nM; with 3T3 fibroblast cells, 14.8 µM. In addition, the figures for the activity at 10 µM (in the data set on 3T3 fibroblast cells; in data set [1] (setting [4])) were 72.7% and 17.3%, respectively. The same compound showed a Selectivity index in data set [1] of 11.4. The concentration giving a half-maximal response (EC50) was 1.66 µM in data set [1] (setting [5]) and 18.9 µM in data set [1] (setting [8]).
Regarding `CN(C)CCC=C1c2ccccc2CCc2ccccc21` [Amitriptyline, dimethyl(3-{tricyclo[9.4.0.0^{3,8}]pentadeca-1(15),3,5,7,11,13-hexaen-2-ylidene}propyl)amine], the CC50 was found to be 36300 nM in “in vitro” (setting [3]) and 22 µM in the data set with 3T3 fibroblast cells. Besides, the figures for the activity at 10 µM (in the data set with 3T3 fibroblast cells; in data set [1] (setting [4])) were 100% and 15.7%, respectively. The concentration giving a half-maximal response (EC50) came out at 3.56 µM in data set [1] (setting [5]) and 6.6 µM in data set [1] (setting [7]). Moreover, the Selectivity index in data set [1] (setting [6]) is reported as 5.7.
As for `CN(C)c1ccc(O)c2c1CC1CC3C(N(C)C)C(O)=C(C(N)=O)C(=O)C3(O)C(O)=C1C2=O.Cl` (stereo not shown) [Minocycline, 4,7-bis(dimethylamino)-3,10,12,12a-tetrahydroxy-1,11-dioxo-1,4,4a,5,5a,6,11,12a-octahydrotetracene-2-carboxamide hydrochloride], the CC50 in “in vitro” (setting [3]) is > 50000 nM. The figures for the activity at 10 µM (in the data set with 3T3 fibroblast cells; in data set [1] (setting [4])) were 83.2% and 10.2%, respectively. Also, in data set [1], the Selectivity index is reported as >5.1. In addition, the EC50 in data set [1] (setting [5]) worked out at 9.8 µM.
Regarding `CN1CCCC1CCOC(C)(c1ccccc1)c1ccc(Cl)cc1` (stereo not shown) [Clemastine, 2-{2-[1-(4-chlorophenyl)-1-phenylethoxy]ethyl}-1-methylpyrrolidine], the activity at 10 µM in the data set on 3T3 fibroblast cells was 93.2%. In the data set on T. cruzi amastigotes, the “% of normal growth” value is recorded as 74%. Besides, in data set [2], the parasitemia result was “no differences compared to the vehicle treated mice”.
With `CN(C/C=C/C#CC(C)(C)C)Cc1cccc2ccccc12` [Terbinafine], the CC50 in the data set “in vitro” (setting [3]) came out at 51000 nM. In addition, the Selectivity index in data set [1] was found to be 2.9. In addition, the half-maximal effective concentration (EC50) in data set [1] (setting [5]) stood at 17.4 µM.
Regarding `CCC(C)(C)C(=O)OC1CC(C)C=C2C=CC(C)C(CCC3CC(O)CC(=O)O3)C21` (stereo not shown) [Simvastatin, 8-[2-(4-hydroxy-6-oxooxan-2-yl)ethyl]-3,7-dimethyl-1,2,3,7,8,8a-hexahydronaphthalen-1-yl 2,2-dimethylbutanoate], the 50% cytotoxic concentration (CC50) at 72 h in “in vitro” (setting [3]) amounted to 4 µM. In addition, the concentration for a half-maximal effect (EC50) in data set [1] (setting [5]) is 0.4 µM.
In “in vitro” (Mammalian cell CC50 (nM)), `Cl.Fc1ccc(C2CCNCC2COc2ccc3c(c2)OCO3)cc1` (stereo not shown) [Paroxetine, 3-[(2H-1,3-benzodioxol-5-yloxy)methyl]-4-(4-fluorophenyl)piperidine hydrochloride] had a CC50 of 18800 nM. Moreover, the activity at 10 µM with 3T3 fibroblast cells is 100%; in data set [1] (setting [4]), 6.8%. In data set [1], this compound displayed a Selectivity index of 4.2. The EC50 in data set [1] (setting [5]) came out at 3.3 µM; in data set [1] (setting [7]), 5.6 µM.
Take `CC[C@@H]([C@H](C)O)n1ncn(-c2ccc(N3CCN(c4ccc(OC[C@@H]5CO[C@@](Cn6cncn6)(c6ccc(F)cc6F)C5)cc4)CC3)cc2)c1=O` [Posaconazole]: in data set [2], the parasitemia result was “some attenuation of parasitemia”.
With `O=C(Cn1ccnc1[N+](=O)[O-])NCc1ccccc1` [Benznidazole], in “in vitro” (setting [3]), the CC50 is > 25000 nM. For the same compound, the parasitemia entry in data set [2] is reported as “some attenuation of parasitemia”. Besides, the concentration for a half-maximal effect (EC50) was 0.65 µM in data set [1] (setting [5]) and 0.6 µM in data set [1] (setting [7]). The Selectivity index in data set [1] (setting [6]) was >40.
On to `CCc1nc(N)nc(N)c1-c1ccc(Cl)cc1` [Pyrimethamine, 5-(4-chlorophenyl)-6-ethylpyrimidine-2,4-diamine], for which the EC50 was 17 µM with T. brucei; 3.82 µM in data set [1] (setting [5]); 3.8 µM in data set [1] (Trypanosoma cruzi, TULAHUEN, Fibroblast). Moreover, the CC50 in “in vitro” (setting [3]) stood at 28500 nM. The activity at 10 µM in the data set with 3T3 fibroblast cells is 97.6%; in data set [1] (setting [4]), 24.2%. The Selectivity index in data set [1] (setting [6]) was found to be 7.5.
As to `CSc1ccc2c(c1)N(CCC1CCCCN1C)c1ccccc1S2` (stereo not shown) [Thioridazine, 10-[2-(1-methylpiperidin-2-yl)ethyl]-2-(methylsulfanyl)-10H-phenothiazine], the CC50 in “in vitro” (setting [3]) worked out at 6200 nM; in the data set on 3T3 fibroblast cells, 8.66 µM. Also, the activity at 10 µM in the data set with 3T3 fibroblast cells turned out to be 45.7%; in data set [1] (setting [4]), 19.1%.
Take `N=C(N)c1ccc(OCCCCCOc2ccc(C(=N)N)cc2)cc1` [Pentamidine, 2-hydroxyethane-1-sulfonic acid; 4-{[5-(4-carbamimidoylphenoxy)pentyl]oxy}benzene-1-carboximidamide]: in “in vitro” (setting [3]), the CC50 is > 50000 nM. For the same compound, the activity at 10 µM came to 94.8% in the data set on 3T3 fibroblast cells and 17.6% in data set [1] (setting [4]). For the same compound, the half-maximal effective concentration (EC50) was found to be 0.181 µM in data set [1] (setting [5]) and 0.18 µM in data set [1] (setting [8]). Besides, the Selectivity index in data set [1] (setting [6]) is listed as >276.
